Experimental data from patent US12495798B2, “Nicotinamide compound and herbicidal composition comprising compound” (KOREA RESEARCH INSTITUTE OF CHEMICAL TECHNOLOGY, priority 2019, dated 2025).

Assays:
Assay type in all cases: in vivo
quack grass = assay: Herbicidal activity test against upland field weeds (foliar treatment test); design: key to Foliar treatment herbicidal activity, quack grass: 0 (no control); 100 (complete control); settings: 50 g ai/ha, scale 0-100
How it was run: (§1)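 Weeds were raised from seed or rootstocks in horticultural soil in a greenhouse (30±5° C., 14/10 h light/dark), then foliage was hand-sprayed with compound at 50 or 75 g a.i./ha in 50% acetone with 0.1% Tween-20. Control was scored visually 0–100 against untreated plants after 14 days, or 21 if needed.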

fall panicum = assay: as above; settings: Panicum dichotomiflorum, 50 g ai/ha, scale 0-100
How it was run: as §1

wheat = assay: Phytotoxicity test for upland field crops (foliar treatment test); design: key: 0 (no harm); 9 (complete withered)
How it was run: (§2)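 Greenhouse-grown crops (30±5 °C, 14/10 h light/dark) in soil pots were foliar-sprayed with compound in 33% acetone/0.1% Tween-20 at 19˜300 g a.i./ha, 100 ml per m^2. Injury was graded 0 (no harm) to 9 (complete withered) versus untreated control at 7 and 14 days after treatment, or 21 days if needed.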

corn = assay: as above; design: key: 0 (no harm); 9 (complete withered)
How it was run: as §2

crabgrass = assay: Herbicidal activity test against upland field weeds (foliar treatment test); settings: Digitaria sanguinalis, 50 g ai/ha, scale 0-100
How it was run: as §1

sorghum = assay: as above; settings: Sorghum, 50 g ai/ha, scale 0-100
How it was run: as §1

indian jointvetch = assay: as above; design: key to Foliar treatment herbicidal activity, Indian jointvetch: 0 (no control); 100 (complete control); settings: 50 g ai/ha, scale 0-100
How it was run: as §1

black nightshade = assay: as above; design: key to Foliar treatment herbicidal activity, black nightshade: 0 (no control); 100 (complete control); settings: 50 g ai/ha, scale 0-100; for pest or weed control at 50 g/ha: Solanum nigrum
How it was run: as §1

cocklebur = assay: as above; settings: Xanthium strumarium, 50 g ai/ha, scale 0-100
How it was run: as §1

bindweed = assay: as above; settings: 50 g ai/ha, scale 0-100
How it was run: as §1

barnyard grass = assay: as above; design: key to Foliar treatment herbicidal activity, barnyard grass: 0 (no control); 100 (complete control); settings: 50 g ai/ha, scale 0-100; for pest or weed control at 50 g/ha: Echinochloa crus-galli
How it was run: as §1

velvetleaf = assay: as above; settings: Abutilon theophrasti, 50 g ai/ha, scale 0-100, read-out: Foliar treatment herbicidal activity, velvet leaf
How it was run: as §1

[1] = 50 g ai/ha, Wheat (7 days after treatment)
[2] = 50 g ai/ha, Wheat (14 days after treatment)
[3] = 100 g ai/ha, Wheat (7 days after treatment)
[4] = 100 g ai/ha, Wheat (14 days after treatment)
[5] = 50 g ai/ha, Corn (7 days after treatment)
[6] = 50 g ai/ha, Corn (14 days after treatment)
[7] = 100 g ai/ha, Corn (7 days after treatment)
[8] = 100 g ai/ha, Corn (14 days after treatment)

Structure (SMILES)	pest or weed control at 50 g/ha (fall panicum)	Foliar treatment phytotoxicity, Wheat (wheat; [1])	Foliar treatment phytotoxicity, Wheat (wheat; [2])	Foliar treatment phytotoxicity, Wheat (wheat; [3])	Foliar treatment phytotoxicity, Wheat (wheat; [4])	Foliar treatment phytotoxicity, Corn (corn; [5])	Foliar treatment phytotoxicity, Corn (corn; [6])	Foliar treatment phytotoxicity, Corn (corn; [7])	Foliar treatment phytotoxicity, Corn (corn; [8])	pest or weed control at 50 g/ha (crabgrass)	plant injury at 50 g/ha (sorghum)	pest or weed control at 50 g/ha (indian jointvetch)	pest or weed control at 50 g/ha (black nightshade)	pest or weed control at 50 g/ha (cocklebur)	pest or weed control at 50 g/ha (bindweed)	pest or weed control at 50 g/ha (barnyard grass)	pest or weed control at 50 g/ha (velvetleaf)	Foliar treatment herbicidal activity, quack grass (quack grass)	Foliar treatment herbicidal activity, black nightshade (black nightshade)	other results
C=CCn1nnnc1NC(=O)c1ccc(C(F)(F)F)nc1COCc1nc(C(F)F)n(C)n1 [Compound No. 2-125, N-(1-allyl-1H-tetrazol-5-yl)-2-(((5-(difluoromethyl)-1-methyl-1H-1,2,4-triazol-3-yl)methoxy)methyl)-6-(trifluoromethyl)nicotinamide]	90%	0	0	0	0	0	0	1	1	95%	30%	60%	95%	80%	95%	60%	40%	–	–	pest or weed control at 50 g/ha (quack grass): 40%
C=Cc1nc(COCc2nc(C(F)(F)F)ccc2C(=O)Nc2nnnn2C)nn1C [Compound No. 2-127, N-(1-methyl-1H-tetrazol-5-yl)-2-(((1-methyl-5-vinyl-1H-1,2,4-triazol-3-yl)methoxy)methyl)-6-(trifluoromethyl)nicotinamide]	40%	0	0	0	0	0	0	0	0	60%	30%	20%	80%	60%	50%	60%	30%	0	–	–
CCCn1nnnc1NC(=O)c1ccc(C(F)(F)F)nc1COCc1nnn(CC)n1 [Compound No. 2-89, 2-(((2-ethyl-2H-tetrazol-5-yl)methoxy)methyl)-N-(1-propyl-1H-tetrazol-5-yl)-6-(trifluoromethyl)nicotinamide]	90%	0	0	0	0	0	0	0	0	60%	50%	40%	–	90%	70%	95%	50%	0	100	–
C=CCn1nnnc1NC(=O)c1ccc(C(F)(F)F)nc1COCc1ncn(C)n1 [Compound No. 2-115, N-(1-allyl-1H-tetrazol-5-yl)-2-(((1-methyl-1H-1,2,4-triazol-3-yl)methoxy)methyl)-6-(trifluoromethyl)nicotinamide]	50%	0	0	0	0	0	0	0	0	20%	10%	–	–	90%	80%	–	50%	0	100	Foliar treatment herbicidal activity, Indian jointvetch (indian jointvetch): 0; Foliar treatment herbicidal activity, barnyard grass (barnyard grass): 0
